≈ marks a conversion by molar mass, not a printed value.
Key:
[1] = tested on: E. coli BW25113; experiment: Minimum inhibitory concentration (MIC) of DOX for E. coli BW25113 ancestor and end-point isolates; assay type: cell-based
Protocol: Experimental protocol. Five populations of E. coli were adapted to DOX in flasks to identify the selection gradient for adaptation to DOX. On the first day, six different colonies were used to inoculate control and five populations containing fresh media. The growth media for E. coli was Lysogeny broth (LB; 10 g/l tryptone, 5 g/l yeast extract, 5 g/l sodium chloride). The following day, each population was transferred to fresh media containing 1 μg/ml DOX with 100-fold dilutions. The fresh media containing desired DOX concentration was prepared by appropriate dilution of DOX stock solution. The stock solution was prepared by dissolving DOX (Tokyo Chemical Industry Co., LTD, Japan) in water, followed by filter sterilization through a 0.22 μm filter (Millex-GP, Millipore, Bedford, MA). The following day, each population was transferred to three tubes containing 1×, 1.5×, and 2× of the current DOX concentration. Hereafter, each population with the best growth was transferred into three new tubes while the control population was propagated in fresh media until twice the DOX clinical breakpoint (16 μg/ml) was reached. In a similar way, on the first day of serial transfer of E. coli to DOX in microdroplets, four to six different colonies were used to inoculate control and three to five populations containing fresh media. The following day, the growth media containing a starting size of ˜2.6×10^6 cells/ml was prepared for each population through appropriate dilution of overnight culture. Fluorinated oil (Novec 7500, 3M, St Paul, MN) with 1.5 w/w % surfactants (Pico-Surf 1™, Sphere Fluidics, Cambridge, UK) was the continuous phase while the growth media containing E. coli was the dispersed phase. These prepared continuous and dispersed phases were injected into four to six microfluidic chips using twelve-multi channel syringe pumps (New Era Pump Systems, Farmingdale, NY) with determined flow rates. More than 800 μl droplets for each population were collected in either a 1.5 ml microfuge tube or a 50 ml tube for the incubation at 37° C. After incubation for 24 h, these droplets were chemically broken with a demulsifier (1H, 1H, 2H, 2H-Perfluorooctanol, >97%, Alfa Aesar, Ward Hill, MA). After OD measurement, cells were propagated by dilution in fresh growth media containing higher DOX concentrations until a concentration of 16 μg/ml. Experiment images were captured using a bright-field inverted microscope (Eclipse Ti2, Nikon, Japan) with a mounted high-speed camera (Phantom V7.2).
At the end of the experiment, individual end-point isolates were isolated randomly by streaking the entire population onto non-selective, nutrient-rich agar plates. End point isolates are defined as randomly selected, independent colonies derived from an evolved population. Since evolved populations are diverse, each end point isolate could potentially have different genotypes. A minimum of three end-point isolates was subjected to whole genome sequencing from each experimental evolution study. In addition, total genomic DNA for each evolved population was isolated and subjected to metagenomic analysis to identify the allelic frequency in the final populations (Dataset S1-S6). The populations were sequenced to achieve at least 100× coverage and a threshold of 5% was used to identify mutations. Both serial transfer and microdroplet populations identified the well-known adaptive alleles marR, acrR, rpsJ and envZ^32-35 as well as the movement of an insertion element IS186 into the upstream regulatory region of the gene encoding the Lon protease (FIG. 17). […] Both methods clearly implicated regulation of the AcrAB-TolC as the fundamental driver for DOX resistance, but there were interesting differences in the evolutionary trajectories identified.

[2] = tested on: P. aeruginosa PAO1; conditions: cited from earlier work
[3] = tested on: Enterobacter species; conditions: some Enterobacter species, after exposure to gradually increasing concentrations; cited from earlier work

For `C[C@H]1c2cccc(O)c2C(O)=C2C(=O)[C@]3(O)C(O)=C(C(N)=O)C(=O)[C@@H](N(C)C)[C@@H]3[C@@H](O)[C@@H]21` [DOX], the “MIC of DOX” value ([1]; F (batch), end-point isolate 1-1) was >16 µg/mL, the “MIC of DOX” value ([1]; F (batch), end-point isolate 1-2) was 16 µg/mL and the “MIC of DOX” value ([1]; F (batch), end-point isolate 1-3) was 16 µg/mL. The “MIC of DOX” value ([1]; F (batch), end-point isolate 2-1) was 16 µg/mL, the “MIC of DOX” value ([1]; F (batch), end-point isolate 2-2) was 16 µg/mL and the “MIC of DOX” value ([1]; F (batch), end-point isolate 2-3) was >16 µg/mL. For the same molecule, the “MIC of DOX” value ([1]; F (batch), end-point isolate 3-1) was 16 µg/mL, the “MIC of DOX” value ([1]; F (batch), end-point isolate 3-2) was 16 µg/mL and the “MIC of DOX” value ([1]; F (batch), end-point isolate 3-3) was 16 µg/mL. For the same molecule, the “MIC of DOX” value ([1]; F (batch), end-point isolate 4-1) was 16 µg/mL, the “MIC of DOX” value ([1]; F (batch), end-point isolate 4-2) was 16 µg/mL and the “MIC of DOX” value ([1]; F (batch), end-point isolate 4-3) was >16 µg/mL. For the same molecule, the “MIC of DOX” value ([1]; F (batch), end-point isolate 5-1) was 16 µg/mL, the “MIC of DOX” value ([1]; F (batch), end-point isolate 5-2) was >16 µg/mL and the “MIC of DOX” value ([1]; F (batch), end-point isolate 5-3) was >16 µg/mL. For the same molecule, the “MIC of DOX” value ([1]; F (batch), isolate C1 (no drug control)) was 4 µg/mL, the “MIC of DOX” value ([1]; F (batch), isolate C2 (no drug control)) was 4 µg/mL and the “MIC of DOX” value ([1]; F (batch), isolate C3 (no drug control)) was 4 µg/mL. For the same molecule, the “MIC of DOX for the ancestor” value ([1]; ancestor E. coli BW25113) was 4 µg/mL, the “MIC of DOX” value ([1]; microemulsion D1, end-point isolate 1-1) was 8 µg/mL and the “MIC of DOX” value ([1]; microemulsion D1, end-point isolate 1-2) was 8 µg/mL. The “MIC of DOX” value ([1]; microemulsion D1, end-point isolate 1-3) was 8 µg/mL, the “MIC of DOX” value ([1]; microemulsion D1, end-point isolate 2-1) was 16 µg/mL and the “MIC of DOX” value ([1]; microemulsion D1, end-point isolate 2-2) was 16 µg/mL. The “MIC of DOX” value ([1]; microemulsion D1, end-point isolate 2-3) was 16 µg/mL, the “MIC of DOX” value ([1]; microemulsion D1, end-point isolate 3-1) was 16 µg/mL and the “MIC of DOX” value ([1]; microemulsion D1, end-point isolate 3-2) was 16 µg/mL. The “MIC of DOX” value ([1]; microemulsion D1, end-point isolate 3-3) was 16 µg/mL, the “MIC of DOX” value ([1]; microemulsion D1, end-point isolate 4-1) was 16 µg/mL and the “MIC of DOX” value ([1]; microemulsion D1, end-point isolate 4-2) was >16 µg/mL. For the same molecule, the “MIC of DOX” value ([1]; microemulsion D1, end-point isolate 4-3) was 16 µg/mL, the “MIC of DOX” value ([1]; microemulsion D1, end-point isolate 5-1) was 16 µg/mL and the “MIC of DOX” value ([1]; microemulsion D1, end-point isolate 5-2) was 16 µg/mL. For the same molecule, the “MIC of DOX” value ([1]; microemulsion D1, end-point isolate 5-3) was 16 µg/mL, the “MIC of DOX” value ([1]; microemulsion D1, isolate C1 (no drug control)) was 4 µg/mL and the “MIC of DOX” value ([1]; microemulsion D1, isolate C2 (no drug control)) was 4 µg/mL. For the same molecule, the “MIC of DOX” value ([1]; microemulsion D1, isolate C3 (no drug control)) was 4 µg/mL, the “MIC of DOX” value ([1]; microemulsion D2, end-point isolate 1-1) was 16 µg/mL and the “MIC of DOX” value ([1]; microemulsion D2, end-point isolate 1-2) was 16 µg/mL. For the same molecule, the “MIC of DOX” value ([1]; microemulsion D2, end-point isolate 1-3) was 16 µg/mL, the “MIC of DOX” value ([1]; microemulsion D2, end-point isolate 2-1) was 16 µg/mL and the “MIC of DOX” value ([1]; microemulsion D2, end-point isolate 2-2) was 16 µg/mL. For the same molecule, the “MIC of DOX” value ([1]; microemulsion D2, end-point isolate 2-3) was 16 µg/mL, the “MIC of DOX” value ([1]; microemulsion D2, end-point isolate 3-1) was 16 µg/mL and the “MIC of DOX” value ([1]; microemulsion D2, end-point isolate 3-2) was 16 µg/mL. The “MIC of DOX” value ([1]; microemulsion D2, end-point isolate 3-3) was 16 µg/mL, the “MIC of DOX” value ([1]; microemulsion D2, end-point isolate 4-1) was 16 µg/mL and the “MIC of DOX” value ([1]; microemulsion D2, end-point isolate 4-2) was 16 µg/mL. The “MIC of DOX” value ([1]; microemulsion D2, end-point isolate 4-3) was 16 µg/mL, the “MIC of DOX” value ([1]; microemulsion D2, end-point isolate 5-1) was 16 µg/mL and the “MIC of DOX” value ([1]; microemulsion D2, end-point isolate 5-2) was 16 µg/mL. The “MIC of DOX” value ([1]; microemulsion D2, end-point isolate 5-3) was 16 µg/mL, the “MIC of DOX” value ([1]; microemulsion D2, isolate C1 (no drug control)) was 4 µg/mL and the “MIC of DOX” value ([1]; microemulsion D2, isolate C2 (no drug control)) was 4 µg/mL. For the same molecule, the “MIC of DOX” value ([1]; microemulsion D2, isolate C3 (no drug control)) was 4 µg/mL, the “MIC of DOX” value ([1]; microemulsion D3, end-point isolate 1-1) was 16 µg/mL and the “MIC of DOX” value ([1]; microemulsion D3, end-point isolate 1-2) was 16 µg/mL. For the same molecule, the “MIC of DOX” value ([1]; microemulsion D3, end-point isolate 1-3) was 16 µg/mL, the “MIC of DOX” value ([1]; microemulsion D3, end-point isolate 2-1) was 8 µg/mL and the “MIC of DOX” value ([1]; microemulsion D3, end-point isolate 2-2) was 16 µg/mL. The “MIC of DOX” value ([1]; microemulsion D3, end-point isolate 2-3) was 8 µg/mL, the “MIC of DOX” value ([1]; microemulsion D3, end-point isolate 3-1) was 16 µg/mL and the “MIC of DOX” value ([1]; microemulsion D3, end-point isolate 3-2) was 8 µg/mL. The “MIC of DOX” value ([1]; microemulsion D3, end-point isolate 3-3) was 16 µg/mL, the “MIC of DOX” value ([1]; microemulsion D3, end-point isolate 4-1) was 16 µg/mL and the “MIC of DOX” value ([1]; microemulsion D3, end-point isolate 4-2) was 16 µg/mL. For the same molecule, the “MIC of DOX” value ([1]; microemulsion D3, end-point isolate 4-3) was 16 µg/mL, the “MIC of DOX” value ([1]; microemulsion D3, end-point isolate 5-1) was 16 µg/mL and the “MIC of DOX” value ([1]; microemulsion D3, end-point isolate 5-2) was 16 µg/mL. For the same molecule, the “MIC of DOX” value ([1]; microemulsion D3, end-point isolate 5-3) was 16 µg/mL, the “MIC of DOX” value ([1]; microemulsion D3, isolate C1 (no drug control)) was 4 µg/mL and the “MIC of DOX” value ([1]; microemulsion D3, isolate C2 (no drug control)) was 4 µg/mL. The “MIC of DOX” value ([1]; microemulsion D3, isolate C3 (no drug control)) was 4 µg/mL, the “MIC of DOX” value ([1]; microemulsion D4, end-point isolate 4-1) was 16 µg/mL and the “MIC of DOX” value ([1]; microemulsion D4, end-point isolate 4-2) was 16 µg/mL. For the same molecule, the “MIC of DOX” value ([1]; microemulsion D4, end-point isolate 4-3) was 16 µg/mL, the “MIC of DOX” value ([1]; microemulsion D4, end-point isolate 5-1) was 16 µg/mL and the “MIC of DOX” value ([1]; microemulsion D4, end-point isolate 5-2) was 16 µg/mL. The “MIC of DOX” value ([1]; microemulsion D4, end-point isolate 5-3) was 8 µg/mL, the “MIC of DOX” value ([1]; microemulsion D4, isolate C1 (no drug control)) was 4 µg/mL and the “MIC of DOX” value ([1]; microemulsion D4, isolate C2 (no drug control)) was 4 µg/mL. The “MIC of DOX” value ([1]; microemulsion D4, isolate C3 (no drug control)) was 4 µg/mL, the “MIC of DOX” value ([1]; microemulsion D5, end-point isolate 1-1) was 16 µg/mL and the “MIC of DOX” value ([1]; microemulsion D5, end-point isolate 1-2) was >16 µg/mL. For the same molecule, the “MIC of DOX” value ([1]; microemulsion D5, end-point isolate 1-3) was 16 µg/mL, the “MIC of DOX” value ([1]; microemulsion D5, end-point isolate 2-1) was >16 µg/mL and the “MIC of DOX” value ([1]; microemulsion D5, end-point isolate 2-2) was 16 µg/mL. For the same molecule, the “MIC of DOX” value ([1]; microemulsion D5, end-point isolate 2-3) was 16 µg/mL, the “MIC of DOX” value ([1]; microemulsion D5, end-point isolate 3-1) was >16 µg/mL and the “MIC of DOX” value ([1]; microemulsion D5, end-point isolate 3-2) was 16 µg/mL. For the same molecule, the “MIC of DOX” value ([1]; microemulsion D5, end-point isolate 3-3) was >16 µg/mL, the “MIC of DOX” value ([1]; microemulsion D5, isolate C1 (no drug control)) was 4 µg/mL and the “MIC of DOX” value ([1]; microemulsion D5, isolate C2 (no drug control)) was 4 µg/mL. The “MIC of DOX” value ([1]; microemulsion D5, isolate C3 (no drug control)) was 4 µg/mL.
In the case of `O=C(N[C@H](CO)[C@H](O)c1ccc([N+](=O)[O-])cc1)C(Cl)Cl` [chloramphenicol], the MIC [2] is listed as 32 µg/mL (≈ 99 µM).
In the case of benzalkonium chloride, the “increase in minimum inhibitory concentration” value [3] is listed as 5-300 fold.

From patent publication US20230295560A1, “SYNTHETIC ECOLOGIES FOR DRUG DISCOVERY” (priority 2021, published 2023)
